Our source for the GI50 and TGI values is PubChem BioAssay (NCI).

What all share (assay): DTP human tumour cell line panel, 48 h
Assay [1] has as its system OVCAR-3 ovarian.
The test system of assay [2] is TK-10 renal.
Assay [3] has as its system K-562 leukemia.
For assay [4], the system named is HL-60(TB) leukemia.
The test system of assay [5] is LOX IMVI melanoma.
Assay [6] concerns UACC-257 melanoma.
Assay [7] concerns SF-268 CNS.
Assay [8] deals with SF-539 CNS.
Assay [9] has as its system DMS 273 small cell lung.
Assay [10] has as its system HOP-92 NSCLC.

Each structure is given as a SMILES string.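 48-hour exposure; five concentrations; linearly interpolated endpoints. The concentration for 50% growth inhibition is given as GI50. TGI: concentration producing complete growth inhibition.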 Some results are limits rather than exact numbers.

The GI50 is the concentration giving 50% growth inhibition. Broadly, the TGI is the concentration giving total growth inhibition. Regarding `CC(=O)[CH-]C(=O)c1ccccc1.CC(=O)[CH-]C(=O)c1ccccc1.CC(C)CCCC(C)[C@H]1CCC2[C@@H]3CCC4C[C@@H]([O-])CC[C@]4(C)C3CC[C@@]21C.CC(C)CCCC(C)[C@H]1CCC2[C@@H]3CCC4C[C@@H]([O-])CC[C@]4(C)C3CC[C@@]21C.Cl.[Ti+4]` (stereo partly drawn), the GI50 is above 25 µM in [1]; above 25 µM in assay [2]; above 25 µM in assay [3]; 8.29 µM in [4]; above 25 µM in assay [5]; above 25 µM in assay [6]. In addition, the GI50 in [7], in assay [8] and in assay [9] was above 25 µM each time. Besides, the TGI in [1] was above 25 µM; in assay [2], above 25 µM; in assay [3], above 25 µM; in [4], 24.9 µM; in assay [5] it was above 25 µM; in [6], above 25 µM. Besides, the TGI in assay [7], in [8] and in assay [9] was above 25 µM in each case.
Regarding `C=CC1(C)/C(=N\O)C(C)(CC)C(=O)N1O` (stereo not drawn), the TGI in assay [1], in assay [2], in assay [3], in assay [10], in assay [4] and in assay [5] was above 100 µM in each case. Moreover, the TGI in assay [6], in [7], in assay [8] and in [9] was above 100 µM each time.
For `CC(C)[C@H](COC(C)(C)C)N=CN1CSc2ccccc21`, the TGI is 58.2 µM in assay [1]; above 100 µM in [2]; above 100 µM in [3]; 41.9 µM in assay [10]; 57.1 µM in assay [4]; 93.2 µM in [5]. The TGI is above 100 µM in assay [7], 65.6 µM in assay [8] and 37.8 µM in assay [9].
Consider `CC(C)(C)c1cc2c(OP(c3ccccc3)c3ccccc3)c(c1)Cc1cc(C(C)(C)C)cc(c1OP(c1ccccc1)c1ccccc1)Cc1cc(C(C)(C)C)cc(c1OP(c1ccccc1)c1ccccc1)Cc1cc(C(C)(C)C)cc(c1OP(c1ccccc1)c1ccccc1)C2`, for which the GI50 in assay [1] was above 50 µM; in assay [2] it was above 50 µM; in [3] it was above 50 µM; in [10] it was above 50 µM; in assay [4], above 50 µM; in assay [5] it was 22.9 µM. Moreover, the GI50 in [6], in [7], in assay [8] and in assay [9] was above 50 µM in each case. The TGI in assay [1], in assay [2], in assay [3], in assay [10], in assay [4] and in [5] was above 50 µM each time. The TGI in assay [6], in [7], in [8] and in [9] was above 50 µM in each case.
Take `COc1ccc2c3c([nH]c2c1[N+](=O)[O-])C(C)N(C(=O)/C=C/c1ccccc1)CC3` (stereo not drawn): the TGI was above 100 µM in [1]; above 100 µM in assay [2]; above 100 µM in assay [3]; 7.01 µM in [4]; 42.6 µM in [5]; above 100 µM in assay [6]. Further, the values for the TGI in assay [7], in assay [8] and in assay [9] were 4.75 µM, 23.2 µM and 7.77 µM, respectively.
As for `NC(CCc1nc(-c2ccccc2)cs1)C(=O)O` (stereo not drawn), the TGI in assay [1], in [2], in [3], in assay [10], in assay [4] and in assay [5] was above 100 µM throughout. In addition, the TGI in [6], in [8] and in assay [9] was above 100 µM throughout.
As to `CCC1N2CCCCC2[C@@H]2c3[nH]c4ccccc4c3CCN12` (stereo partly drawn), the TGI in assay [1], in assay [2], in assay [3], in assay [10], in [4] and in [6] was above 100 µM each time. Also, the TGI in assay [7], in assay [8] and in [9] was above 100 µM in each case.
As for `N#CC(C(=N/NC(N)=S)/C(=N\NC(N)=S)C(C#N)c1ccccc1)c1ccccc1` (stereo not drawn), the TGI in assay [1], in assay [2], in assay [3], in [10], in [4] and in assay [5] was above 10 µM each time. Further, the TGI in [6], in assay [7], in assay [8] and in [9] was above 10 µM in each case.
On to `CCC(=O)[O-].CCC(=O)[O-].N.N.N.N.[Co+3].[O-][Cl+3]([O-])([O-])[O-]`, for which the GI50 in assay [1] is above 100 µM; in [2], above 100 µM; in assay [3] it was above 100 µM; in assay [10], 27.2 µM; in assay [4] it was above 100 µM; in [5], above 100 µM. In addition, the GI50 in assay [6], in assay [7], in [8] and in [9] was above 100 µM in each case. The TGI in assay [1], in [2], in assay [3], in [10], in assay [4] and in assay [5] was above 100 µM each time. Moreover, the TGI in [6], in assay [7], in assay [8] and in assay [9] was above 100 µM each time.
As to `CC[O+]=c1cccc2ssnc1-2`, the TGI is 99.8 µM in assay [1]; above 100 µM in [2]; above 100 µM in [3]; above 100 µM in [4]; above 100 µM in assay [5]; above 100 µM in assay [6]. In addition, the TGI in assay [7], in assay [8] and in assay [9] was above 100 µM throughout.
For the molecule `CC(C)c1cccc2sc(NC(=O)C(=O)CC(=O)c3ccc(F)cc3)nc12`, the TGI in assay [1], in [2], in assay [3], in [10], in assay [4] and in [5] was above 100 µM in each case. The TGI in assay [6], in assay [7], in assay [8] and in [9] was above 100 µM each time.
